Source: US9242937B2, “Pharmaceutically active disubstituted pyridine derivatives” (Bayer Intellectual Property GmbH, priority 2011, dated 2016)

How the values were obtained:
CDK9/Cyclin T1 = molecular target: T1, CDK9/Cyclin T1 (Homo sapiens, UniProt P50750); experiment: LanthaScreen Eu Kinase Binding Assay, CDK9/Cyclin T1; conditions: tracer 236, read-out: CDK9/Cyclin T1 (activity range), Kd
T1 construct: purchased Invitrogen
Description: (§1) This protocol describes how the LanthaScreen Eu Kinase Binding Assay was performed to determine dissociation constants (Kd) of compounds of general formula (I) and CDK/Cyclin complexes. The principle behind this assay is based upon the binding and displacement of an Alexa Fluor 647-labeled tracer, which binds to the active site of kinases. Binding of the tracer to the kinase is detected using a Eu-labeled antibody. Simultaneous binding of both the tracer and antibody to the kinase gives rise to a FRET-signal. Binding of an inhibitor to the kinase competes for binding with the tracer, resulting in a loss of FRET.
(§2) The compounds of general formula (I) summarized in Table 1 were diluted from a 10 mM DMSO stock solution 1:10 in a total volume of 15 μL DMSO. This compound predilution was then serial diluted 1:3 over 8 steps in DMSO and briefly spun down. Each compound solution was now diluted 1:33.33 in kinase buffer (HEPES: 20 mM, pH: 8.0; MgCl2: 10 mM; DTT: 1 mM; Brij-35: 0.01%), mixed thoroughly and spun down. For every sample, 5 μL of the diluted compound were mixed with 5 μL tracer working solution (e.g. 60 nM tracer 236 in kinase buffer for CDK2/Cyclin A) and 5 μL CDK/Cyclin/Anti-GST-AB-working solution (e.g. 15 nM CDK2/Cyclin A, 1:250 dilution of Anti-GST-AB in kinase buffer) in a well of a small volume 384 well plate (Corning Incorporated, Corning, N.Y., USA; order no. 3673). The tracer concentration was adjusted to its dissociation constant (Kd) for the CDK/Cyclin, which was 30 nM for CDK2/Cyclin A, CDK7/Cyclin H and CDK9/Cyclin T1, 20 nM for CDK8/Cyclin C, and 35 nM for CDK9/Cyclin K. For negative controls, in each well 5 μL of DMSO working solution (3% DMSO diluted in kinase buffer) was mixed with 5 μL Anti-GST-AB working solution (e.g. 1:250 dilution of Anti-GST-AB in kinase buffer for CDK2/Cyclin A) and 5 μL Tracer working solution (e.g. 60 nM Tracer 236 in kinase buffer for CDK2/Cyclin A). For positive controls, in each well 5 μL of DMSO working solution (3% DMSO diluted in kinase buffer) was mixed with 5 μL CDK/Cyclin/Anti-GST-AB-working solution: (e.g. 15 nM CDK2/Cyclin A, 1:250 dilution of Anti-GST-AB in kinase buffer) and 5 μL Tracer working solution (e.g. 60 nM Tracer 236 in kinase buffer for CDK2/Cyclin A). Positive and negative controls were calculated from at least 8 different sample wells. The 384 well plates were mixed in a Teleshaker plate mixer (Beckman Coulter, Brea, Calif., USA) at 2000 rpm for 40 sec, and incubated for 1 h at room temperature before reading. The FRET signal was measured at 340 nm excitation, 665 nm and 615 nm emission (for the kinase tracer and LanthaScreen Eu-AB, respectively) with an Envision spectrophotometer (Perkin Elmer, Waltham, Mass., USA) with 50 μs delay and 300 μs integration time. Kd values were determined from the sigmoidal dose response curves with the software Quattro Workflow (Quattro GmbH, Munich, Germany).

CDK7/CyclinH/MAT1 [1] = molecular target: T2, CDK7/CyclinH/MAT1 (Homo sapiens, UniProt P50613); experiment: LanthaScreen Eu Kinase Binding Assay, CDK7; conditions: tracer 236, read-out: CDK7 (activity range), Kd
T2 construct: purchased Carna Biosciences
T2 sequence (P50613 whole entry): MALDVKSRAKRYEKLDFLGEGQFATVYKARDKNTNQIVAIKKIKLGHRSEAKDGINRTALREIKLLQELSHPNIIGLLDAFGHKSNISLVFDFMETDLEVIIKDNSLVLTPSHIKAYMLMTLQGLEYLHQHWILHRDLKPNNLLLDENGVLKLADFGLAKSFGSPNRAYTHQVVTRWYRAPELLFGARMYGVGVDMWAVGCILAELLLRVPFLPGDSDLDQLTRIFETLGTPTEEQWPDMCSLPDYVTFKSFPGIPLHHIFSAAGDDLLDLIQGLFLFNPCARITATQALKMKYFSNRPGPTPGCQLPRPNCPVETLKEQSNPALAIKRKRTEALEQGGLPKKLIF
T2 sequence (P51946 whole entry partner): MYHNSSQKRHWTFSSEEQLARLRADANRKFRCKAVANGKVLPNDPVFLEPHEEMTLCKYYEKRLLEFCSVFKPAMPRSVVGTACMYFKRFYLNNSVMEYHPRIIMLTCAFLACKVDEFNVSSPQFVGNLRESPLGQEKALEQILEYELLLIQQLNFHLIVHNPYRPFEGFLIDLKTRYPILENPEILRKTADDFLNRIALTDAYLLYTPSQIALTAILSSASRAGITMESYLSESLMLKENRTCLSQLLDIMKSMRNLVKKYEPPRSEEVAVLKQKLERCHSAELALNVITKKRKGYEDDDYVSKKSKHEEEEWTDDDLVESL
T2 sequence (P51948 whole entry partner): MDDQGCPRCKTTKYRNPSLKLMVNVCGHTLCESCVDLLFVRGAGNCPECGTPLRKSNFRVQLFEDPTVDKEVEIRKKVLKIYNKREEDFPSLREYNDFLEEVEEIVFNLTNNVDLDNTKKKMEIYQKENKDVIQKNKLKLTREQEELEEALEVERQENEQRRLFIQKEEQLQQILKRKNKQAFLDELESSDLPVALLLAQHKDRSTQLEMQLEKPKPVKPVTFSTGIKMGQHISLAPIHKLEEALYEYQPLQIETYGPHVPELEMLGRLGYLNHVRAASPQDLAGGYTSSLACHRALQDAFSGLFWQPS
Description: as §1, §2

CDK2/CyclinA [2] = molecular target: T3, CDK2/CyclinA (Homo sapiens, UniProt P24941); experiment: LanthaScreen Eu Kinase Binding Assay, CDK2; conditions: tracer 236, read-out: CDK2 (activity range), Kd
T3 construct: purchased Proqinase
Description: as §1, §2

CDK9 = molecular target: T4, CDK9 (Homo sapiens, UniProt P50750); experiment: Lance Ultra KinaSelect Assay, CDK9; format: biochemical; conditions: ULight MBP substrate; cyclin partner not stated in Table 5; read-out: CDK9 LANCE assay (activity range), IC50
T4 construct: purchased Invitrogen
T4 sequence (P50750 whole entry): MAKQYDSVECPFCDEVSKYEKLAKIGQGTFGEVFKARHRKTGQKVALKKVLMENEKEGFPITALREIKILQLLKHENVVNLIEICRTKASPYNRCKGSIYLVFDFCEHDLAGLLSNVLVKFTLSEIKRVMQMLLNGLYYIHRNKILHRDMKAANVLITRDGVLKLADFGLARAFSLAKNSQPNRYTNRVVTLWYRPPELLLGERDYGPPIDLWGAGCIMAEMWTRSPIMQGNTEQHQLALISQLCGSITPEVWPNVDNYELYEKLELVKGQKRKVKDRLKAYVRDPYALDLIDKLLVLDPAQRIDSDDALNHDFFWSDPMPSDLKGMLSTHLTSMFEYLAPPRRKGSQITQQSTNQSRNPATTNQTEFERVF
Description: (§3) This protocol describes how the Lance Ultra KinaSelect Assay was performed to determine half maximal inhibitory concentration (IC50) of compounds of general formula (I) and CDK/Cyclin complexes. The principle behind this enzymatic assay is based upon the phosphorylation of the ULight-Peptide Substrat. It is detected by using a specific EU-labeled anti-phospho peptide antibody. The binding of the Eu-labeled anti-phospho peptide antibody to the phosphorylated ULight labeled peptide gives rise to a FRET-signal. Binding of an inhibitor to the kinase prevents phosphorylation of the ULight-MBP Substrat, resulting in a loss of FRET.
(§4) The compounds of general formula (I) summarized in Table 5 were diluted from a 10 mM DMSO stock solution 1:10 in a total volume of 15 μL DMSO. This compound predilution was then serial diluted 1:3 over 8 steps in DMSO and briefly spun down. Each compound solution was now diluted 1:20 in Enzymatic Buffer (HEPES: 50 mM, pH: 7.5; MgCl2: 10 mM; EGTA: 1 mM; DTT: 2 mM; Tween-20: 0.01%), mixed thoroughly and spun down. For every sample, 2 μL of the diluted compound were mixed with 6 μL CDK/Cyclin/Substrat solution and 2 μL ATP solution in a well of a small volume 384 well plate (Corning Incorporated, Corning, N.Y., USA; order no. 3673). The CDK/Cyclin was diluted to the appropriate concentration (see Table 3) and the ATP concentration was adjusted to its […] for the CDK/Cyclin, which was 3 μM for CDK2/Cyclin A, 20 μM for CDK1/Cyclin B1, 25 μM for CDK7/Cyclin H and CDK9/Cyclin T1, 55 μM for CDK6/Cyclin D3, 90 μM for CDK4/Cyclin D1 and 125 μM for CDK9/Cyclin K. For negative controls, in each well 2 μL of DMSO solution (1% final DMSO assay concentration) was mixed with 6 μL substrate solution (50 nM ULight MBP final assay concentration) and 2 μL ATP solution (appropriate final concentration see Table 3). For positive controls, in each well 2 μL of DMSO solution (1% final DMSO assay concentration) was mixed with 6 μL CDK/Cyclin/Substrat (appropriate final concentration see Table 3) and 2 μL Tracer ATP solution (appropriate final concentration see Table 3). Positive and negative controls were calculated from at least 8 different sample wells. The 384 well plates were mixed in a Teleshaker plate mixer (Beckman Coulter, Brea, Calif., USA) at 2000 rpm for 40 sec, and incubated for 1 h at room temperature. Before reading, 10 μL the detection buffer (Lance Detection Buffer 1×; EDTA: […]; Eu-Anti-P-MBP: see Table 3) was added. The FRET signal was measured at 340 nm excitation, 665 nm and 615 nm emission (for the kinase tracer and LanthaScreen Eu-AB, respectively) with an Envision spectrophotometer (Perkin Elmer, Waltham, Mass., USA) with 50 μs delay and 300 μs integration time. IC50 values were determined from the sigmoidal dose response curves with the software Quattro Workflow (Quattro GmbH, Munich, Germany).

CDK2/CyclinA [3] = molecular target: T3, CDK2/CyclinA; experiment: Lance Ultra KinaSelect Assay, CDK2; format: biochemical; conditions: ULight MBP substrate, ATP 3 μM; read-out: CDK2 LANCE assay (activity range), IC50
Description: as §3, §4

CDK7/CyclinH/MAT1 [4] = molecular target: T2, CDK7/CyclinH/MAT1; experiment: Lance Ultra KinaSelect Assay, CDK7; format: biochemical; conditions: ULight MBP substrate, ATP 25 μM; read-out: CDK7 LANCE assay (activity range), IC50
Description: as §3, §4

T1 sequence (P50750 whole entry): as above
T1 sequence (O60563 whole entry partner): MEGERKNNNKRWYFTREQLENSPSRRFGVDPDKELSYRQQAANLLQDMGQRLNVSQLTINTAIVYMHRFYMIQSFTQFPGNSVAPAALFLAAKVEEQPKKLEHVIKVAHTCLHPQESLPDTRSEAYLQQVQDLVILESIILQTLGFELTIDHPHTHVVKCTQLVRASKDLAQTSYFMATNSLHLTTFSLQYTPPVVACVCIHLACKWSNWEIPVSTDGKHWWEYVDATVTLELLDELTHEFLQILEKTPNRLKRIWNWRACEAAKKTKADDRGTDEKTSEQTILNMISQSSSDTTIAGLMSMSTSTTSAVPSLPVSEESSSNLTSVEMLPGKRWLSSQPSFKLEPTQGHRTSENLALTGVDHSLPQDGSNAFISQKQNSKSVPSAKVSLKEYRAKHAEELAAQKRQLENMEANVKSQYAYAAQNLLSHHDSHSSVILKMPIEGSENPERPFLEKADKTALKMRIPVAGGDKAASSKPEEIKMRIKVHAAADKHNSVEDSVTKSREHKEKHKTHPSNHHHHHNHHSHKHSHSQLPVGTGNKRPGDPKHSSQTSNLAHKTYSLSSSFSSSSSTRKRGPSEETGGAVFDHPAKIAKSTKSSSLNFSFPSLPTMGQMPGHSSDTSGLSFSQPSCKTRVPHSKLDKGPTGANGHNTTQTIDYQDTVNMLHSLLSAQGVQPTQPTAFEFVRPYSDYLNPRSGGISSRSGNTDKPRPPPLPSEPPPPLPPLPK

Row | Kd (CDK9/Cyclin T1) [nM] | Kd (CDK7/CyclinH/MAT1 [1]) [nM] | Kd (CDK2/CyclinA [2]) [nM] | IC50 (CDK9) [nM] | IC50 (CDK2/CyclinA [3]) [nM] | IC50 (CDK7/CyclinH/MAT1 [4]) [nM] | Structure (SMILES)
1 | < 100 | > 10000 | 100 to 1000 | < 100 | 1000 to 10000 | > 10000 | COc1ccccc1-c1ccnc(Nc2cccc(CCS(N)(=O)=O)c2)c1 [Compound H1, 2-[3-((4-(2-Methoxyphenyl)pyridin-2-yl)amino)phenyl]-ethanesulfonamide]
2 | 1000 to 10000 | > 10000 |  |  |  |  | COc1cc(F)ccc1-c1ccnc(Nc2cccc(S(=O)(=O)NC(C)(C)C)c2)c1 [Compound D2, N-(tert-Butyl)-3-[(4-(4-fluoro-2-methoxyphenyl)pyridin-2-yl)amino]-benzenesulfonamide]
3 | < 100 | > 10000 | < 100 | < 100 | 100 to 1000 | > 10000 | COc1ccccc1-c1ccnc(Nc2cccc(CS(N)(=O)=O)c2)c1 [Compound G2, [3-((4-(2-Methoxyphenyl)pyridin-2-yl)amino)phenyl]-methanesulfonamide]
